According to patent US20160318866A1, “SUBSTITUTED BIPIPERIDINYL DERIVATIVES” (Bayer Pharma Aktiengesellschaft, priority 2013, published 2016):

Key:
human α2C receptor = target: T1, human α2C receptor (Homo sapiens, UniProt P18825); test: Antagonism against the adrenoreceptor α2C (luminescence, recombinant CHO cell line); type: cell-based; settings: antagonism against adrenoreceptor α2C; noradrenaline 20 nM; tested up to 10 μM; read-out: IC50
T1 construct: expressed in transfected cells; host or cells: CHO cells, also recombinantly expressing chimeric G protein Gαqi3 and mitochondrial obelin (mtOb)
T1 sequence (P18825 1-462): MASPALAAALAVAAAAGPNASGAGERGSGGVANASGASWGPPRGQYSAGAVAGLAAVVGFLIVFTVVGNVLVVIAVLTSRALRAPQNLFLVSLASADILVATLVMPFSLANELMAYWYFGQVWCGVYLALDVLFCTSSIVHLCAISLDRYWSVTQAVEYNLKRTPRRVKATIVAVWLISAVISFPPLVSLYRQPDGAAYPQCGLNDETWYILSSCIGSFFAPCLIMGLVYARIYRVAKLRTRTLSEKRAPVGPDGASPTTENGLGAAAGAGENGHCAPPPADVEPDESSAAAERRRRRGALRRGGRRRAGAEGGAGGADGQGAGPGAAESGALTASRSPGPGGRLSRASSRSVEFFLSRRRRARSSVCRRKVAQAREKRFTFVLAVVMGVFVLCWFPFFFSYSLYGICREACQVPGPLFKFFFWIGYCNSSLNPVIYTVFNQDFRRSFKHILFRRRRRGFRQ
In short: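 CHO cells expressing human α2C receptor with chimeric Gαqi3 and mitochondrial obelin, loaded with 2.5 μg/ml coelenterazine for one day at 30 °C.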

[1] = test system: diabetic (ZDFfa/fa) and healthy rats (Wistar); test: Assay of perfusion-enhancing substances (microcirculation), laser doppler at the paw; type: in vivo, rat; settings: single oral dose
Text: In diabetic (ZDFfa/fa) and healthy rats (Wistar), a laser doppler probe was fastened under anaesthesia conditions (isoflurane anaesthesia) at the sole of the paw for measuring cutaneous microcirculation. The test animals were once treated orally with the test substances. During the experiment, microperfusion and temperature of the lower extremities were documented continuously. Here, a temperature-sensitive laser doppler probe (Periflux, O2C) was fastened with adhesive to the paws of the animals, allowing the measurement of microperfusion and skin temperature. The microcirculation measurement values were measured on both paws 30 min after oral administration of the test substance. […] Also stated is the MED for the significant increase of skin temperature (ttest).

adult female Wistar rats = test: Radiotelemetric measurement of blood pressure and heart rate of conscious rats; type: in vivo, rat; settings: 10 mg/kg, oral, telemetry over 24 hours
Text: A commercially available telemetry system from Data Sciences International DSI, USA, was employed for the measurements on conscious rats described below. The system consists of 3 main components: (1) implantable transmitters (Physiotel® telemetry transmitter), (2) receivers (Physiotel® receiver), which are linked via a multiplexer (DSI Data Exchange Matrix) to a (3) data acquisition computer. The telemetry system makes it possible to continuously record blood pressure, heart rate and body motion of conscious animals in their usual habitat.
The studies were conducted on adult female Wistar rats with a body weight of >200 g. After transmitter implantation, the experimental animals were housed singly in type III Makrolon® cages. They had free access to standard feed and water. The day/night rhythm in the test laboratory was set by changing the illumination of the room.
The telemetry transmitters used (PA-C40, DSI) were surgically implanted under aseptic conditions in the experimental animals at least 14 days before the first experimental use.
For the implantation, the fasted animals were anaesthetized with isoflurane (IsoFlo®, Abbott, initiation 5%, maintenance 2%) and shaved and disinfected over a large area of their abdomens. […]
Each of the instrumented rats living in the system was assigned a separate receiving antenna (RPC-1 Receiver, DSI). […] The signals emitted were detected online by a data acquisition system (Dataquest™ A.R.T. for Windows, DSI) and processed accordingly.
In the standard procedure, the following were measured for 10-second periods in each case: (1) systolic blood pressure (SBP), (2) diastolic blood pressure (DBP), (3) mean arterial pressure (MAP), (4) heart rate (HR) and (5) activity (ACT). These parameters were measured over 24 hours after administration.
The acquisition of measurements was repeated under computer control at 5-minute intervals. The source data obtained as absolute values were corrected in the diagram with the currently measured barometric pressure (Ambient Pressure Reference Monitor, APR-1, DSI). […]

CCOCC1CCCN(C2CCN(C(=O)c3ccc(C(C)(C)O)cc3)CC2)C1 (stereo not shown) [Example 120, [3-(Ethoxymethyl)-1,4′-bipiperidin-1′-yl][4-(2-hydroxypropan-2-yl)phenyl]methanone]
IC50 (human α2C receptor): 10 nM

COC(C)(C)c1ccc(C(=O)N2CCC(N3CCCC(OCC4CC4)C3)CC2)cc1 (stereo not shown) [Example 122, [3-(Cyclopropylmethoxy)-1,4′-bipiperidin-1′-yl][4-(2-methoxypropan-2-yl)phenyl]methanone]
IC50 (human α2C receptor): 9 nM

O=C(c1ccc(C2(O)COC2)cc1)N1CCC(N2CCCC(OCC3CC3)C2)CC1 (stereo not shown) [Example 124, [3-(Cyclopropylmethoxy)-1,4′-bipiperidin-1′-yl][4-(3-hydroxyoxetan-3-yl)phenyl]methanone]
IC50 (human α2C receptor): 39 nM

CC(C)(O)c1ccc(C(=O)N2CCC(N3CCCC(C4CC4)C3)CC2)cc1 (stereo not shown) [Example 126, (3-Cyclopropyl-1,4′-bipiperidin-1′-yl)[4-(2-hydroxypropan-2-yl)phenyl]methanone]
IC50 (human α2C receptor): 12 nM

CC(C)(O)c1ccc(C(=O)N2CCC(N3CCCC(OCCOC(F)(F)F)C3)CC2)cc1 (stereo not shown) [Example 127, [4-(2-Hydroxypropan-2-yl)phenyl]{3-[2-(trifluoromethoxy)ethoxy]-1,4′-bipiperidin-1′-yl}methanone]
IC50 (human α2C receptor): 154 nM

CC(C)(O)c1ccc(C(=O)N2CCC(N3CCCC(OCC4CC4)C3)CC2)cc1 (stereo not shown) [Example 128, [3-(Cyclopropylmethoxy)-1,4′-bipiperidin-1′-yl][4-(2-hydroxypropan-2-yl)phenyl]methanone]
IC50 (human α2C receptor): 36 nM

COC[C@@]1(C)CCCN2CCc3c(oc4ccccc34)[C@@H]21 [ORM-12741, reference compound]
factor by which microcirculation is improved at this dose compared to placebo ([1]; at the MED, 30 min after administration): 1.9 x | MED [mg/kg] skin temperature ([1]; minimum effective dose for significant increase of skin temperature (ttest)): 0.01 mg/kg | MED [mg/kg] microcirculation ([1]; minimum effective dose for significantly improved microcirculation vs placebo, 30 min after administration): 0.1 mg/kg | blood pressure (adult female Wistar rats): additional reduction in blood pressure
